# Data: patent US8802405B2, “Ethanologenic Clostridium species, Clostridium coskatii” (Coskata, Inc., priority 2010, dated 2014)
# Legend:
# [1] = test system: C. autoethangenum; assay: Antibiotic susceptibility, growth at 100 μg/mL antibiotic; type: cell-based, Clostridium autoethanogenum; conditions: antibiotic 100 μg/ml, 37% CO, 35% H2, 22% CO2, balance N2, OD600
# Experimental: (§1) The antibiotic susceptibility of Clostridium coskatii (PS02) was evaluated in Acetogen C3 media against 17 antibiotics at a concentration of 100 μg/mL (Table G). Clostridium coskatii (PS02) was resistant to erythromycin, nalidixic acid, spectinomycin, colistin, penicillin, streptomycin, and chloramphenicol. Three antibiotics differentiated C. coskatii from three ethanologenic Clostridia: C. ljungdahlii PETC, C. ragsgalei, and C. autoethanogenum. These differentiating antibiotics included, erythromycin, carbenicillin, and chloramphenicol (Table J).
# (§2) Antibiotic susceptibility was based upon growth in media containing 100 μg/mL of each antibiotic. The atmosphere was 37% CO, 35% H2, 22% CO2 with a balance gas of N2. A positive growth response was recorded for an OD600 exceeding 0.2 AU.
# [2] = test system: C. ragsdalei; assay: as above; type: cell-based, Clostridium ragsdalei; conditions: antibiotic 100 μg/ml, 37% CO, 35% H2, 22% CO2, balance N2, OD600
# Experimental: as §1, §2
# [3] = test system: C. coskatii PS02; assay: as above; type: cell-based, Clostridium coskatii (PS02); conditions: Acetogen C3 media; for Antibiotic susceptibility pattern (+ indicates growth): C. coskatii PS02, antibiotic 100 μg/ml, 37% CO, 35% H2, 22% CO2, balance N2, OD600; for Resistance to antibiotic (in words): Clostridium coskatii (PS02), 100 μg/mL
# Experimental: as §1, §2
# [4] = test system: C. ljungdahlii PETC; assay: as above; type: cell-based, Clostridium ljungdahlii PETC; conditions: for Antibiotic susceptibility pattern (+ indicates growth): C. ljungdahlii PETC, antibiotic 100 μg/ml, 37% CO, 35% H2, 22% CO2, balance N2, OD600; for Resistance to antibiotic (in words): Clostridium ljungdahlii PETC, 100 μg/mL
# Experimental: as §1, §2
# [5] = at 37° C.; cited from earlier work
# [6] = test system: C. ljungdahlii PETC; assay: Growth on various substrates (carbon substrate utilization); type: cell-based, Clostridium ljungdahlii PETC; conditions: 1 g/L carbon source, N2:CO2 (80%:20%), OD600
# Experimental: (§3) Growth was measured spectrophotometrically at 600 nm (Spectronic 20D; Milton Roy). Carbon substrate utilization was based upon growth after consecutive transfers in media containing 1 g/L of each carbon source. For carbon substrates, screening was performed under an atmosphere of N2: CO2 (80%:20%). A positive growth response was recorded for an OD600 exceeding 0.2 AU. For citrate, additional ^13C-labeled isotope experiments were conducted to determine the nature of products by analysis of final 0.2 μm-filtered product samples by carbon NMR using a Bruker UltraShield Avance 400 MHz nuclear magnetic resonance spectrometer.
# [7] = test system: C. coskatii PS02; assay: as above; type: cell-based, Clostridium coskatii (PS02)
# Experimental: as §3
# [8] = test system: C. ragsdalei; assay: as above; type: cell-based, Clostridium ragsdalei; conditions: 1 g/L carbon source, N2:CO2 (80%:20%), OD600
# Experimental: as §3
# [9] = test system: C. autoethangenum; assay: as above; type: cell-based, Clostridium autoethanogenum; conditions: C. autoethangenum; 1 g/L carbon source; N2:CO2 (80%:20%); OD600
# Experimental: as §3
Molecule,Antibiotic susceptibility pattern (+ indicates growth) [1],Antibiotic susceptibility pattern (+ indicates growth) [2],Antibiotic susceptibility pattern (+ indicates growth) [3],Resistance to antibiotic (in words) [3],Antibiotic susceptibility pattern (+ indicates growth) [4],other results
CCn1cc(C(=O)O)c(=O)c2ccc(C)nc21 [Nalidixic acid],+ (+ indicates growth),+ (+ indicates growth),+ (+ indicates growth),resistant,+ (+ indicates growth),–
Penicillin,+ (+ indicates growth),+ (+ indicates growth),+ (+ indicates growth),resistant,+ (+ indicates growth),–
CC[C@H]1OC(=O)[C@H](C)[C@@H](O[C@H]2C[C@@](C)(OC)[C@@H](O)[C@H](C)O2)[C@H](C)[C@@H](O[C@@H]2O[C@H](C)C[C@H](N(C)C)[C@H]2O)[C@](C)(O)C[C@@H](C)C(=O)[C@H](C)[C@@H](O)[C@]1(C)O [Erythromycin],–,–,+ (+ indicates growth),resistant,+ (+ indicates growth),Resistance to antibiotic (in words) [4]: Resistance
"O=S(=O)(O)CCN1CCOCC1 [MES, 2-(N-morpholino)ethanesulfonic acid]",–,–,–,–,–,pKa [5]: 5.97
CN[C@@H]1[C@H](O)[C@H](NC)[C@H]2O[C@@]3(O)C(=O)C[C@@H](C)O[C@H]3O[C@@H]2[C@H]1O [Spectinomycin],+ (+ indicates growth),+ (+ indicates growth),+ (+ indicates growth),resistant,+ (+ indicates growth),–
CC1(C)S[C@@H]2[C@H](NC(=O)C(C(=O)O)c3ccccc3)C(=O)N2[C@H]1C(=O)O (stereo partly shown) [Carbenicillin],–,–,+ (+ indicates growth),Resistance,+ (+ indicates growth),Resistance to antibiotic (in words) [4]: Resistance
Colistin,+ (+ indicates growth),+ (+ indicates growth),+ (+ indicates growth),resistant,+ (+ indicates growth),–
[H]/N=C(/N)N[C@H]1[C@H](O)[C@@H](O)[C@H](O[C@@H]2O[C@@H](C)[C@](O)(C=O)[C@H]2O[C@@H]2O[C@@H](CO)[C@H](O)[C@@H](O)[C@@H]2NC)[C@@H](N/C(N)=N\[H])[C@@H]1O [Streptomycin],+ (+ indicates growth),+ (+ indicates growth),+ (+ indicates growth),resistant,+ (+ indicates growth),–
"O=S(=O)(O)CCN1CCN(CCS(=O)(=O)O)CC1 [PIPES, piperazine-N,N′-bis(2-ethanesulfonic acid]",–,–,–,–,–,pKa [5]: 6.66
O=C(N[C@H](CO)[C@H](O)c1ccc([N+](=O)[O-])cc1)C(Cl)Cl [Chloramphenicol],–,–,+ (+ indicates growth),resistant,–,–
NC(=O)CC[C@H](N)C(=O)O [Glutamine],–,–,–,–,–,"Growth on substrate [6]: + (A positive growth response was recorded for an OD600 exceeding 0.2 AU); Growth on substrate ([7]; C. coskatii PS02, 1 g/L carbon source, N2:CO2 (80%:20%), OD600): + (A positive growth response was recorded for an OD600 exceeding 0.2 AU); Chemoorganotrophic growth on substrate (in words) ([7]; Clostridium coskatii (PS02)): growth was observed; Growth on substrate [8]: + (A positive growth response was recorded for an OD600 exceeding 0.2 AU); Growth on substrate [9]: + (A positive growth response was recorded for an OD600 exceeding 0.2 AU)"
Tris(hydroxymethyl)aminomethane,–,–,–,–,–,pKa [5]: 7.72
